Test results as given in US11464770B2, “Anticancer pharmaceutical composition” (NATIONAL CANCER CENTER, priority 2016, dated 2022).
Where two headings read alike, the source gives them in different places.

How the values were obtained:
liver cancer cell lines = experiment: Cell based assay, cell viability (CellTiter-Glo), liver cancer cell lines; details: Homo sapiens, SK-HEP1; SK-HEP-1 cell line
How it was run: (§1)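 Read-out is ATP-dependent luminescence (CellTiter-Glo) taken after 72 h of exposure to compound at final concentrations from 0 to 2 μM. Cells were plated 24 h beforehand.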

[1] = test system: prostate cancer cell lines (e.g. DU145/TXR); experiment: Cell based assay, cell viability (CellTiter-Glo), prostate cancer cell lines; details: Homo sapiens, 72 hours treatment, final concentration 0 to 2 μM
How it was run: as §1

[2] = test system: bladder cancer cell lines; experiment: Cell based assay, cell viability (CellTiter-Glo), bladder cancer cell lines; details: 72 hours treatment, 0 to 2 μM, CellTiter-Glo
How it was run: as §1

[3] = CWR22 cells, read-out: IC50, prostate cancer cell line CWR22
[4] = DU-145, DU145/TXR cells, read-out: IC50, prostate cancer cell line DU145/TXR
[5] = DU-145, DU145 cells, read-out: IC50, prostate cancer cell line DU145
[6] = LNcap cells, read-out: IC50, prostate cancer cell line LNcap
[7] = PC-3 cells, read-out: IC50, prostate cancer cell line PC-3
[8] = 5637 cells, read-out: IC50, bladder cancer cell line 5637
[9] = Homo sapiens, T-24, T24 cells, read-out: IC50, bladder cancer cell line T24
[10] = Homo sapiens, J82 cells, read-out: IC50, bladder cancer cell line J82

| SMILES | IC50 (liver cancer cell lines) [µM] | IC50 [1, 3] [µM] | IC50 [1, 4] [µM] | IC50 [1, 5] [µM] | IC50 [1, 6] [µM] | IC50 [1, 7] [µM] | IC50 [2, 8] [µM] | IC50 [2, 9] [µM] | IC50 [2, 10] [µM] | IC50 ([2]; Homo sapiens, KU-19-19 cells, read-out: IC50, bladder cancer cell line KU-19-19) [µM] |
| --- | --- | --- | --- | --- | --- | --- | --- | --- | --- | --- |
| COc1cc(S(F)(F)(F)(F)F)ccc1C[S+]([O-])c1[nH]c2c(Br)ccc(Cl)c2c(=O)c1C(C)=O (centres unmarked) [Compound 75, 3-acetyl-8-bromo-5-chloro-2-((2-methoxy-4-(pentafluoro--sulfanyl)benzyl)sulfinyl)quinolin-4(1H)-one] | 1.03 | 1.88 | 1.03 | 1.02 | > 2 | 1.44 | 1.57 | 1.33 | 1.48 | – |
| CC(=O)c1c([S+]([O-])Cc2cccnc2)[nH]c2c(Br)ccc(Cl)c2c1=O (centres unmarked) [Compound 84, 3-acetyl-8-bromo-5-chloro-2-((pyridin-3-ylmethyl)sulfinyl)quinolin-4(1H)-one] | 1.07 | 1.42 | 1.23 | 1.39 | > 2 | > 2 | > 2 | 1.03 | > 2 | – |
| CC(=O)c1c([S+]([O-])Cc2ccc(C#N)cc2)[nH]c2c(Br)ccc(Cl)c2c1=O (centres unmarked) [Compound 73, 4-(((3-acetyl-8-bromo-5-chloro-4-oxo-1,4-dihydroquinolin-2-yl)sulfinyl)methyl)benzonitrile] | 1.42 | > 2 | 1.77 | > 2 | > 2 | 1.87 | > 2 | – | > 2 | > 2 |
| CC(=O)c1c([S+]([O-])Cc2ccc(F)c(Cl)c2)[nH]c2c(Br)ccc(Cl)c2c1=O (centres unmarked) [Compound 31, 3-acetyl-8-bromo-5-chloro-2-((3-chloro-4-fluorobenzyl)sulfinyl)quinolin-4(1H)-one] | – | 1.59 | 0.93 | 1.44 | 1.64 | 1.41 | 1.23 | 1.12 | 1.38 | – |
| CC(=O)c1c([S+]([O-])Cc2cc(F)cc(S(F)(F)(F)(F)F)c2)[nH]c2c(Br)ccc(Cl)c2c1=O (centres unmarked) [Compound 76, 3-acetyl-8-bromo-5-chloro-2-((3-fluoro-5-(pentafluoro--sulfanyl)benzyl)sulfinyl)quinolin-4(1H)-one] | 1.23 | > 2 | 1.17 | 1.14 | > 2 | 1.7 | > 2 | 1.79 | > 2 | – |
| CC(=O)c1c([S+]([O-])Cc2cc(Cl)ccc2Cl)[nH]c2c(Br)ccc(Cl)c2c1=O (centres unmarked) [Compound 44, 3-acetyl-8-bromo-5-chloro-2-((2,5-dichlorobenzyl)sulfinyl)quinolin-4(1H)-one] | 0.94 | 1.58 | 1 | 1.6 | 1.98 | 1.49 | 1.35 | 0.92 | 2.07 | – |
| CC(=O)c1c(S(=O)(=O)Cc2ccccc2)[nH]c2c(Br)ccc(Cl)c2c1=O [Compound 34, 3-acetyl-2-(benzylsulfonyl)-8-bromo-5-chloroquinolin-4(1H)-one] | 1.72 | > 2 | 1.59 | > 2 | – | – | > 2 | > 2 | > 2 | – |
| CC(=O)c1c([S+]([O-])Cc2ccc([S+]([O-])C(F)(F)F)cc2)[nH]c2c(Br)ccc(Cl)c2c1=O (centres unmarked) [Compound 64, 3-acetyl-8-bromo-5-chloro-2-((4-((trifluoromethyl)sulfinyl)benzyl)sulfinyl)quinolin-4(1H)-one] | 0.87 | 1.49 | 1.16 | 1.57 | 1.71 | 1.43 | 1.52 | 1.04 | 1.96 | – |
| CC(=O)c1c([S+]([O-])Cc2ccc(F)cc2F)[nH]c2c(Br)ccc(Cl)c2c1=O (centres unmarked) [Compound 29, 3-acetyl-8-bromo-5-chloro-2-((2,4-difluorobenzyl)sulfinyl)quinolin-4(1H)-one] | 1.03 | 1.77 | – | 1.73 | 1.55 | 1.46 | 1.33 | 1.09 | > 2 | – |
| CC(=O)c1c([S+]([O-])Cc2ccc([N+](=O)[O-])cc2)[nH]c2c(Br)ccc(Cl)c2c1=O (centres unmarked) [Compound 33, 3-acetyl-8-bromo-5-chloro-2-((4-nitrobenzyl)sulfinyl)quinolin-4(1H)-one] | 1.08 | 1.34 | 1.34 | 1.63 | 1.84 | 1.58 | > 2 | 1.03 | > 2 | – |
| COc1cccc(C[S+]([O-])c2[nH]c3c(Br)ccc(Cl)c3c(=O)c2C(C)=O)c1 (centres unmarked) [Compound 55, 3-acetyl-8-bromo-5-chloro-2-((3-methoxybenzyl)sulfinyl)quinolin-4(1H)-one] | 1.43 | > 2 | 1.39 | > 2 | > 2 | 1.93 | > 2 | 1.54 | > 2 | – |
| CC(=O)c1c([S+]([O-])Cc2cc(F)cc(F)c2)[nH]c2c(Br)ccc(Cl)c2c1=O (centres unmarked) [Compound 46, 3-acetyl-8-bromo-5-chloro-2-((3,5-difluorobenzyl)sulfinyl)quinolin-4(1H)-one] | 1.31 | > 2 | 1.56 | > 2 | > 2 | > 2 | 1.77 | 1.57 | > 2 | – |
| CC(=O)c1c([S+]([O-])Cc2c(F)cccc2Cl)[nH]c2c(Br)ccc(Cl)c2c1=O (centres unmarked) [Compound 74, 3-acetyl-8-bromo-5-chloro-2-((2-chloro-6-fluorobenzyl)sulfinyl)quinolin-4(1H)-one] | 0.88 | 1.72 | 1.46 | > 2 | 1.76 | 1.47 | 1.6 | 1.07 | > 2 | – |
| CC(=O)c1c([S+]([O-])Cc2c(F)c(F)c(F)c(F)c2F)[nH]c2c(Br)ccc(Cl)c2c1=O (centres unmarked) [Compound 78, 3-acetyl-8-bromo-5-chloro-2-(((perfluorophenyl)methyl)sulfinyl)quinolin-4(1H)-one] | – | > 2 | 1.38 | 1.15 | > 2 | 1.53 | > 2 | 1.8 | > 2 | – |
| Cc1cc(C[S+]([O-])c2[nH]c3c(Cl)ccc(Cl)c3c(=O)c2C(=O)C(C)C)no1 (centres unmarked) [Compound 86, 5,8-dichloro-3-isobutyryl-2-(((5-methylisoxazol-3-yl)methyl)sulfinyl)quinolin-4(1H)-one] | 1 | 1.26 | 1.11 | 1.31 | > 2 | 1.67 | 1.36 | 1.02 | 1.61 | – |
| CC(=O)c1c([S+]([O-])Cc2ccc([N+](=O)[O-])cc2)[nH]c2c(Cl)ccc(Cl)c2c1=O (centres unmarked) [Compound 57, 3-acetyl-5,8-dichloro-2-((4-nitrobenzyl)sulfinyl)quinolin-4(1H)-one] | > 2 | > 2 | > 2 | > 2 | > 2 | > 2 | > 2 | 1.79 | > 2 | – |
| CC(=O)c1c([S+]([O-])Cc2ccc(C(F)(F)F)cc2)[nH]c2c(Br)ccc(Cl)c2c1=O (centres unmarked) [Compound 70, 3-acetyl-8-bromo-5-chloro-2-((4-(trifluoromethyl)benzyl)sulfinyl)quinolin-4(1H)-one] | 1.03 | 1.89 | 1.19 | 1.09 | > 2 | 1.25 | 1.73 | 1.69 | 1.94 | – |
| CC(=O)c1c([S+]([O-])Cc2cc(C)on2)[nH]c2c(Br)ccc(Cl)c2c1=O (centres unmarked) [Compound 51, 3-acetyl-8-bromo-5-chloro-2-(((5-methylisoxazol-3-yl)methyl)sulfinyl)quinolin-4(1H)-one] | 1.31 | 1.03 | 1.12 | 1.24 | 1.24 | 1.36 | 1.07 | 0.89 | > 2 | – |
| CC(=O)c1c([S+]([O-])Cc2cccc(F)c2)[nH]c2c(Br)ccc(Cl)c2c1=O (centres unmarked) [Compound 50, 3-acetyl-8-bromo-5-chloro-2-((3-fluorobenzyl)sulfinyl)quinolin-4(1H)-one] | 1.35 | > 2 | 1.28 | 1.77 | > 2 | 1.6 | 1.47 | – | > 2 | – |
| CC(=O)c1c([S+]([O-])Cc2ccc(C(F)(F)F)o2)[nH]c2c(Br)ccc(Cl)c2c1=O (centres unmarked) [Compound 72, 3-acetyl-8-bromo-5-chloro-2-(((5-(trifluoromethyl)furan-2-yl)methyl)sulfinyl)quinolin-4(1H)-one] | 0.73 | 1.52 | 0.89 | 0.71 | 1.91 | 1.28 | 1.64 | 1.25 | 1.63 | – |
| COC(=O)c1ccc(C[S+]([O-])c2[nH]c3c(Cl)ccc(Cl)c3c(=O)c2C(C)=O)o1 (centres unmarked) [Compound 89, methyl 5-(((3-acetyl-5,8-dichloro-4-oxo-1,4-dihydroquinolin-2-yl)sulfinyl)methyl)furan-2-carboxylate] | 1.59 | > 2 | 1.96 | > 2 | > 2 | > 2 | > 2 | 1.75 | > 2 | – |
| COc1cc(C[S+]([O-])c2[nH]c3c(Br)ccc(Cl)c3c(=O)c2C(C)=O)cc(OC)c1 (centres unmarked) [Compound 59, 3-acetyl-8-bromo-5-chloro-2-((3,5-dimethoxybenzyl)sulfinyl)quinolin-4(1H)-one] | 0.91 | 1.56 | – | 1.49 | > 2 | 1.64 | > 2 | 1.11 | > 2 | – |
| CC(=O)c1c([S+]([O-])Cc2ccc(I)cc2)[nH]c2c(Cl)ccc(Cl)c2c1=O (centres unmarked) [Compound 83, 3-acetyl-5,8-dichloro-2-((4-iodobenzyl)sulfinyl)quinolin-4(1H)-one] | 1.51 | 1.94 | 1.05 | 1.34 | > 2 | > 2 | 1.37 | 1.5 | > 2 | – |
